# Legend:
# [1] = test system: MIA PaCa-2 cells; assay: Cell viability (MTS) assay, MIA PaCa-2; format: cell-based; settings: Homo sapiens, MIA PaCa-2, 72 h
# Protocol: (§1) To prepare lysates, 0.5×10^6 PA NC-1 cells were seeded in 100 mm dishes in 10 ml DMEM High glucose and 24 hours later, 5-FU (Sigma) or 19-S were added at the specified concentrations. Cells were harvested after 72 hours and cell pellets were stored at −80° C. For GI50 determination, 3000 MIA PaCa-2 cells. […] After 72 hours, cell viability was assessed by reduction of MTS ((3-4,5-dimethylthiazol-2-yl)-5-(3-carboxymethoxyphenol)-2-(4-sulfophenyl)-2H-tetrazolium) using Cell Titer 96 R Aqueous One Solution Cell Proliferation Assay Kit (Promega), following manufacturer's recommendations. Chemiluminescent output (integration time 1000 ms) was measured on a SpectraMax M3® (Molecular devices). Data were normalized to max/minutes and plotted in GraphPad Prism for GI50 determination. Chemical synthesis details, including characterization of each compound, can be found in the supporting information document associated with this publication.
# [2] = test system: Luc-PANC-1 xenograft tumors; assay: Luc-PANC-1 subcutaneous xenograft tumor model; format: in vivo, NSG mice; settings: for median survival: control 54 days
# Protocol: (§2) Luc-PANC-1 (5×106) and Luc-CM (0.5×106) cells were resuspended in 200 ul of PBS and injected subcutaneously (SQ) or intraperitonially (IP) to 6-8-week-old NSG mice respectively. Tumor bearing mice were imaged using Xenogen IVIS® Lumina Bioluminescence Imaging System (Perkin Elmer) every week after cell injection. At 4 weeks, animals were randomized based on slope of luciferase signal and treatment was initiated. […] For all animals body weight was recorded weekly and Luc-PANC-1 tumor volume was measured weekly with a caliper. For scheduled sacrifice experiments, animals were euthanized after 4 weeks of treatment. […] Harvested tumors were excised and weighted, and fixed in alcoholic formalin (67.5% Ethanol, 10% Formaldehyde 37%, 22.5% water) for pathology analysis. Tumor volume was calculated as [volume=0.52 (length×width2)].
# (§3) From this stock, the exact volume needed for daily in vivo delivery was then formulated into 95% corn oil (Mazola) at 2 different concentrations: 1.25 mg/mi (formulation 1) and 3.125 mg/ml (formulation 2). To determine the volume of solution administered to the mice, 200 μl (maximum volume to be delivered in mice via IP or oral gavage) was divided by 25 g of mouse body weight. Therefore, 8 μl of formulation 1 or 2 multiplied by the weight of the mice were used to reach a dose of 10 or 25 mg/kg of body weight, respectively.
# (§4) Prior to bioluminescence imaging the region where tumors were located was shaved. Mice were then anesthetized with 2.5% isoflurane in 02 then administered the D-luciferin substrate (150 mg/kg in PBS) by IP injection. Following the injection of the D-luciferin substrate mice were imaged using the Xenogen IVIS® Lumina Bioluminescence Imaging System (Perkin Elmer). The peak of luciferase photon flux was recorded 6 minutes after injection of the D-luciferin substrate. The total photon flux was analyzed and restricted to tumor ROI (region of interest) using Living Image v2.60.1 software (Imaging Systems).
# [3] = test system: CM cells; assay: Cell viability (MTS) assay, CM; format: cell-based; settings: 72 hour drug incubation (FIG. 1C)
# [4] = test system: PANC-1 cells; assay: Cell viability (MTS) assay, PANC-1; format: cell-based; settings: Homo sapiens; PANC-1, 72 hour drug incubation (FIG. 1C)
# Protocol: as §1
# [5] = molecular target: T1, human TS (Homo sapiens, UniProt P04818); assay: Competitive drug displacement assay (tritium TS assay); format: biochemical; settings: TS pre-incubated with drug
# T1 construct: 6xHis (N); made in house; host or cells: E. coli BL21 (DE3)
# T1 sequence (P04818 whole entry): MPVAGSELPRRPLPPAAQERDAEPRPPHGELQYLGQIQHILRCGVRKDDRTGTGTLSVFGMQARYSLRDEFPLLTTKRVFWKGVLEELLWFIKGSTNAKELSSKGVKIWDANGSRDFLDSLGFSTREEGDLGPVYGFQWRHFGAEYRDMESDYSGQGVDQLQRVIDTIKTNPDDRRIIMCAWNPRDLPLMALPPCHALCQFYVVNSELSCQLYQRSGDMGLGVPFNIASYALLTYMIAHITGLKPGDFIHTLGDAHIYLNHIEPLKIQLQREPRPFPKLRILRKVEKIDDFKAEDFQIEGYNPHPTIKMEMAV
# Protocol: For these experiments the TS protein was first incubated with each drug, the reaction was then initiated by addition of 5,10-mTHF and dUMP using different concentrations of either 5,10-mTHF or dUMP to change the substrate:drug ratio. If there was competition between one of the substrates and the drug for the same binding site, increasing the substrate concentration will displace more of the pre-bound drug and shift the equilibrium towards the enzyme: substrate complex, thus allowing the conversion of dUMP to proceed (FIG. 5A).
# The competitive drug displacement assay utilized the standard reaction conditions for the tritium based TS catalytic activity assay including 40 μM dUMP (Sigma Aldrich, D3876) with the [5-3H]dUMP tracer (ViTrax, VT122) accounting for 0.06% of the final dUMP concentration and 100 μM 5,10-methylene tetrahydrofolate (defined as 1× dUMP and 1×5,10-mTHF). Concentrations of total dUMP and 5,10-mTHF were then changed relative to these 1× concentrations to concisely indicate the changes in either the substrate or cofactor concentration. […] The remaining components in each 200 μL reaction were consistent in all reactions and included 2 μg of purified human TS in 50 mM KH2PO4 (Sigma Aldrich, P0662) and 100 mM β-mercaptoethanol (Sigma Aldrich, M7522).
# [6] = Maximum tolerated dose (MTD) study; format: in vivo
# Source text: After 3 treatment cycles, animals rested (no treatment) for one more week before euthanasia. Body weight and physical status of all mice were closely monitored. Tissues were collected and fixed in alcoholic formalin to test for toxicity.
# [7] = test system: Luc-CM disseminated tumors; assay: Luc-CM disseminated xenograft tumor model; format: in vivo, NSG mice
# Protocol: as §2, §3, §4
smiles,measurement,setting,value
CCc1nc(N)nc(N)c1-c1ccc(N(C)Cc2ccccc2)c([N+](=O)[O-])c1 [Compound 19-S],GI50,"[1]; MIA PaCa-2, 72-hour treatment, highest concentration 350 μM (FIG. 4E)",200 to 840 nM
same,GI50,"[1]; MIA PaCa-2, 72 hour drug incubation (FIG. 1C)",1260 nM
same,median survival,[2]; 10 mg/kg PO until survival endpoint,68 days
same,body weight,"[2]; 25 mg/kg IP, 4 cycles, vs vehicle",no significant deviations
same,final tumor mass,"[2]; 25 mg/kg IP, 4 cycles, p=0.0029 vs vehicle",significantly reduced
same,"tumor progression (bioluminescence photon flux, tumor volume)","[2]; 25 mg/kg IP, 5 days on/2 days rest, 4 cycles, p=0.0023 flux, p<0.0001 volume vs vehicle",inhibited tumor progression
same,median survival,[2]; 25 mg/kg PO until survival endpoint,84 days
same,adverse effects / body weight,"[2]; 25 mg/kg oral gavage, 4 cycles",did not show adverse effects or declines in body weight
same,"tumor progression (photon flux, tumor volume, excised tumor mass)","[2]; 25 mg/kg oral gavage, 4 cycles (FIGS. 7A-7H)",inhibited tumor progression
same,survival compared to vehicle control,"[2]; 10 or 25 mg/kg PO (either dose), Kaplan-Meier",statistically significant (p=0.0027) prolonged survival
same,total flux (bioluminescence),"[2]; 10 or 25 mg/kg PO, at 6 weeks after cell injection, vs vehicle",significant reduction of total flux
same,tumor volume,"[2]; 10 or 25 mg/kg PO, p=0.0079, maintained till endpoint",significant inhibition of tumor volume
same,body weight,"[2]; 10 or 25 mg/kg PO, survival study, vs vehicle",no significant differences
same,GI50,[3],95 nM
same,GI50,[4],8.35 µM
same,"dUMP conversion with increasing 5,10-mTHF concentration (drug displacement)","[5]; 5,10-mTHF up to 5×",increased the amount of dUMP conversion
same,dUMP conversion with increasing dUMP concentration (drug displacement),[5]; dUMP up to 5×,the amount of dUMP conversion did not increase
same,mortality,"[6]; 50 mg/kg IP, n=3 (FIG. 10B)","found dead after 12th, 13th and 14th dose"
same,mortality,"[6]; 50 mg/kg IP, n=3 (FIG. 10C)",2 were found dead after 1st dose and one animal reached endpoint
same,mortality,"[6]; 100 mg/kg IP, n=2 (FIG. 10B)",found dead after 1st and 3rd dose
same,mortality,"[6]; 100 mg/kg IP, n=3 (FIG. 10C)",found dead after 1st dose
same,MTD at 3 treatment cycles of 5 consecutive daily doses,"[6]; mouse, in vivo, IP, NSG mice, read-out: maximum tolerated dosage (MTD)",25 mg/kg
same,body weight and behavior,"[7]; 25 mg/kg IP, 3 cycles",did not show significant deviations in body weight or display adverse behavior
same,tumor progression (abdominal bioluminescence photon flux),"[7]; 25 mg/kg IP, 3 cycles, p=0.0032 vs vehicle",efficiently inhibited tumor progression
same,body weight,[7]; 25 mg/kg oral gavage,no significant deviations in body weight
